Test results taken from article PMC11513893, “Discovery of Oral Degraders of the ROS1 Fusion Protein with Potent Activity against Secondary Resistance Mutations” (Journal of Medicinal Chemistry, 2024).
Where “and” joins values, the source holds several entries; their conditions need not be identical. Equal values may be shown once.

Columns and labels:
CAMK2D = CAMK2D (Homo sapiens, UniProt Q13557); experiment: Kinase assay; type: biochemical; settings: average of duplicate measurements
[1] = Pharmacokinetics study in Sprague–Dawley rats; type: in vivo; settings: rat
Procedure: Four to 6 weeks old Sprague–Dawley rats [Crl: CD (SD)] (SPF/VAF) were purchased from Charles River (Wilmington MA). Animals were quarantined/acclimated for 2–6 weeks prior to dose initiation. Sprague–Dawley rats were given oral administration of test compounds (20% PG, 5% Solutol, and 75% of 20% HP-β-CD in water) at different dose levels. After treatment with the compounds, whole blood was collected from each study animal by puncture of the tail vein (0.4 mL of whole blood from rats) into tubes containing K2EDTA at each time point. The plasma samples were divided into 2 aliquots (approximately equal in volume) and stored frozen at −75 ± 15 °C within 2 h of the collection until analysis.
The stock solution of the test compound (0.01 M) in DMSO was prepared and stored at −20 ± 5 °C. The desired serial concentrations of working reference analyte solutions were achieved by diluting a stock analyte solution with 50% acetonitrile (0.1% formic acid) in water solution. The bioanalytical LC–MS/MS method was developed for quantitative determination of each test compound in Sprague–Dawley rat plasma with acceptable selectivity, sensitivity, calibration curve, precision, and accuracy. The analytical method is applicable for the determination of test compounds in Sprague–Dawley rat plasma with a lower limit of quantification of 10.0 ng/mL and an upper limit of quantification of 5000 ng/mL. Five microliters of diluted supernatant was injected into the LC–MS/MS system (TSQ Quantis) and a SynergiTM 4 μm Fusion-RP 80 Å (50 × 2 mm) column using gradient elution and a Triple Quad mass spectrometer) for quantitative analysis. The mobile phases used were 0.1% formic acid in deionized water and 0.1% formic acid in acetonitrile. The pharmacokinetic parameters T1/2 (the biological half-life), Cmax (maximal concentration), Tmax (time at which Cmax is observed), and AUC (area under the plasma concentration–time curve) were calculated from the plasma concentration versus time data using WinNonlin (PhoenixTM, version 8.1, Mountain View, CA, USA).

BRK (PTK6) = BRK (PTK6) (Homo sapiens, UniProt Q13882); experiment: Kinase assay; type: biochemical; settings: average of duplicate measurements
CHEK1 = CHEK1 (Homo sapiens, UniProt O14757); experiment: Kinase assay; type: biochemical; settings: average of duplicate measurements
Ba/F3 ROS1 D2033N = experiment: Antiproliferation assay; type: cell-based; settings: Mus musculus, BaF3; Ba/F3 cells, cell growth inhibition
Source text: (§1) To assess targeted degradation of ROS1 fusion proteins, we first established a mouse pro-B cell line Ba/F3 as a model expressing the CD74-ROS1 oncogene or CD74-ROS1 with clinically observed secondary/tertiary mutations. The Ba/F3 cell line is dependent on interleukin-3 for survival and proliferation. Upon transduction of oncogenic ROS1, Ba/F3 cells become independent of interleukin-3 but dependent on the transduced driver gene.
(§2) Ba/F3 immortalized murine bone marrow–derived pro-B cells were obtained from Creative Biogene (Shirley, NY) and cultured in RPMI supplemented with 10% FBS and IL3 (0.5 ng/mL). Ba/F3 cells expressing ROS1 variants were maintained in RPMI supplemented with 10% FBS and puromycin (0.7 mg/mL). […] Each compound was dissolved in DMSO and serially diluted in RPMI for cell culture experiments.
(§3) To assess the 72 h effect of drug treatment on cell proliferation, 2000 to 3000 cells were plated in replicates of three in 96-well plates. The plates were placed in an incubator at 37 °C, 5% CO2 for 72 h. Following drug treatments, the cells were incubated with the Alamar Blue Assay reagent (BioRad), 5 μL each well for 4 h at 37 °C and 5% CO2. Luminescence was measured on a multiplate reader and analyzed. […] IC50 values were determined using a nonlinear regression model with a sigmoidal dose response in GraphPad. The data were collected based on triplicate experiments, and presented as mean ± SD.
(§4) The resulting virus was used to infect Ba/F3 cells. After retroviral infection, Ba/F3 cells were selected by incubation with puromycin (0.7 mg/mL) for 2 weeks. For Ba/F3 cells infected by the CD74–ROS1 variants, IL3 was withdrawn from the culture medium at least 2 weeks before the experiments.

Ba/F3 ROS1 L2026M = experiment: Antiproliferation assay; type: cell-based; settings: Mus musculus, BaF3; Ba/F3 cells, cell growth inhibition
Source text: as §1, §2, §3, §4

Ba/F3 ROS1 G2032R-F2075V = experiment: Antiproliferation assay; type: cell-based; settings: Mus musculus, BaF3; Ba/F3 cells, cell growth inhibition
Source text: as §1, §2, §3, §4

[2] = test system: Ba/F3 ROS1 (SLC34A2) F2075C-G1837E; experiment: Antiproliferation assay; type: cell-based; settings: Mus musculus, BaF3; Ba/F3 cell line
Procedure: (§5) Ba/F3 immortalized murine bone marrow–derived pro-B cells were obtained from Creative Biogene (Shirley, NY) and cultured in RPMI supplemented with 10% FBS and IL3 (0.5 ng/mL). Ba/F3 cells expressing ROS1 variants were maintained in RPMI supplemented with 10% FBS and puromycin (0.7 mg/mL). Crizotinib, ceritinib, brigatinib, repotrectinib, and lorlatinib were purchased from MedChem Express. Each compound was dissolved in DMSO and serially diluted in RPMI for cell culture experiments.
as §3

[3] = test system: Ba/F3 ROS1 (SLC34A2) G2032R-D2113G; experiment: Antiproliferation assay; type: cell-based; settings: Mus musculus, BaF3; Ba/F3 cell line
Procedure: as §5, §3

[4] = test system: Ba/F3 ROS1 (SLC34A2) G2032R-F2075C; experiment: Antiproliferation assay; type: cell-based; settings: Mus musculus, BaF3; Ba/F3 cell line
Procedure: as §5, §3

ALK = ALK (Homo sapiens, UniProt Q9UM73); experiment: Kinase assay; type: biochemical; settings: average of duplicate measurements
FLT3 = FLT3 (Homo sapiens, UniProt P36888); experiment: Kinase assay; type: biochemical; settings: average of duplicate measurements
[5] = Pharmacokinetics study in Sprague–Dawley rats; type: in vivo; settings: rat, 0.5 mg/kg iv
Log P measurement = type: physicochemical
Source text: An important physicochemical property for a PROTAC molecule is its lipophilicity that largely dictates its pharmaceutical performance such as absorption, permeability, and distribution.

ERBB4/HER4 = ERBB4/HER4 (Homo sapiens, UniProt Q15303); experiment: Kinase assay; type: biochemical; settings: average of duplicate measurements
ROS1 (G2101A) = ROS1 (G2101A) (Homo sapiens, UniProt P08922, G2101A); experiment: Kinase assay; type: biochemical; settings: average of duplicate measurements
ERBB2 = ERBB2 (Homo sapiens, UniProt P04626); experiment: Kinase assay; type: biochemical; settings: average of duplicate measurements
Chain of ERBB2 (P04626 23-1255, species assumed): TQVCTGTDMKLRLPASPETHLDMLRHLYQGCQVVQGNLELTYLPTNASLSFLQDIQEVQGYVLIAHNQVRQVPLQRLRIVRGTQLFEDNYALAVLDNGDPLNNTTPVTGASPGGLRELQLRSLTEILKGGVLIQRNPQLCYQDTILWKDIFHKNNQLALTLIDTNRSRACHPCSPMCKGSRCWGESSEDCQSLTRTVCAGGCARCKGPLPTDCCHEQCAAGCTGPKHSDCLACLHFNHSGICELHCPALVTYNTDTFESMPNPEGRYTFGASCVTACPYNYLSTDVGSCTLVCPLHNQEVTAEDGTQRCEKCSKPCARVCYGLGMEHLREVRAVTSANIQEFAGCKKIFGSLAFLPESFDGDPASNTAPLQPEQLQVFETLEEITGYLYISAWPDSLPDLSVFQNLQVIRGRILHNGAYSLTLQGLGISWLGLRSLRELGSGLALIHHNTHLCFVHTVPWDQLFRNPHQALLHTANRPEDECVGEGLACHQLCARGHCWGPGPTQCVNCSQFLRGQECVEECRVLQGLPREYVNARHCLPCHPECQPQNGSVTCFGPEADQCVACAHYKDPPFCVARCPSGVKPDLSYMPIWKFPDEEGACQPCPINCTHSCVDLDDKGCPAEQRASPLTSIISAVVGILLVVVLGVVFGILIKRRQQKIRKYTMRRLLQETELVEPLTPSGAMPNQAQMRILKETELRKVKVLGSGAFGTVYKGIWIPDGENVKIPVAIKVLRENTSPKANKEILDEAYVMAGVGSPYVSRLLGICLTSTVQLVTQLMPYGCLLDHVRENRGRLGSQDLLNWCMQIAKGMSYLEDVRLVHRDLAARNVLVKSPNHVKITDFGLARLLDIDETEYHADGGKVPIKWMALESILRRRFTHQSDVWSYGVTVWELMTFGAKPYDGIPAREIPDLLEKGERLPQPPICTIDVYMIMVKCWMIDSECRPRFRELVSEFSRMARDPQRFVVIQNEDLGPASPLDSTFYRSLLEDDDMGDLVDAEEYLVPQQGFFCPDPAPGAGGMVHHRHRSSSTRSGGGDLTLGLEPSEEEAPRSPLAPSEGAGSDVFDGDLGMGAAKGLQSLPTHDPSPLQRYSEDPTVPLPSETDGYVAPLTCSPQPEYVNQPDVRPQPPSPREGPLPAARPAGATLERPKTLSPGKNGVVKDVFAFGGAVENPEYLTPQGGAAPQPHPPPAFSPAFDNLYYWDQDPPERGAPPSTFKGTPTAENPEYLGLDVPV

Chain of FLT3 (P36888 27-993, species assumed): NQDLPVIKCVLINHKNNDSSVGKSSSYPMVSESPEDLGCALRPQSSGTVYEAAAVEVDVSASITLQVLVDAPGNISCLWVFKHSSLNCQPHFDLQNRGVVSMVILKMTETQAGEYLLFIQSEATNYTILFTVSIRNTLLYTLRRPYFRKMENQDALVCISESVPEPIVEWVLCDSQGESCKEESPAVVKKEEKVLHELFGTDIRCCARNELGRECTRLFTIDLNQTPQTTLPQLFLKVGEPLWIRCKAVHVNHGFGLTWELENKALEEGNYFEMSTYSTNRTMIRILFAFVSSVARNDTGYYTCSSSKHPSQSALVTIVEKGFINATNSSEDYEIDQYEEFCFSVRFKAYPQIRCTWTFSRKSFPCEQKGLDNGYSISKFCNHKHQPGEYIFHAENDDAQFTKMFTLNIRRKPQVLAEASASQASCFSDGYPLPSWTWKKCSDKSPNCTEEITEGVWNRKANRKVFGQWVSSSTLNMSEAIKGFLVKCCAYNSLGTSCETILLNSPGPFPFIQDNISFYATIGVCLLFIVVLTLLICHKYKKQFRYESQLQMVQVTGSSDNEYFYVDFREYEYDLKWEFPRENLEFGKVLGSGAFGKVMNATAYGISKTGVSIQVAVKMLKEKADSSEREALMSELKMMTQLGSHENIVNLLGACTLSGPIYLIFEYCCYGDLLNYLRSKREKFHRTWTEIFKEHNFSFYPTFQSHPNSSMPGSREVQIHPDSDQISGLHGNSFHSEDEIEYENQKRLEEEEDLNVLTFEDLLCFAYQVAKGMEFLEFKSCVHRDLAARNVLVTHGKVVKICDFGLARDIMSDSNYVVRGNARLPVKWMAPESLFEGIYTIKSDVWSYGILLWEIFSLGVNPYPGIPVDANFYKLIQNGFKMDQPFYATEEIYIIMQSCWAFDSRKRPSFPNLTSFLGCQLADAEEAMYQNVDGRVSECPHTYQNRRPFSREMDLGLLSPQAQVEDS
Chain of ERBB4/HER4 (Q15303 26-1308): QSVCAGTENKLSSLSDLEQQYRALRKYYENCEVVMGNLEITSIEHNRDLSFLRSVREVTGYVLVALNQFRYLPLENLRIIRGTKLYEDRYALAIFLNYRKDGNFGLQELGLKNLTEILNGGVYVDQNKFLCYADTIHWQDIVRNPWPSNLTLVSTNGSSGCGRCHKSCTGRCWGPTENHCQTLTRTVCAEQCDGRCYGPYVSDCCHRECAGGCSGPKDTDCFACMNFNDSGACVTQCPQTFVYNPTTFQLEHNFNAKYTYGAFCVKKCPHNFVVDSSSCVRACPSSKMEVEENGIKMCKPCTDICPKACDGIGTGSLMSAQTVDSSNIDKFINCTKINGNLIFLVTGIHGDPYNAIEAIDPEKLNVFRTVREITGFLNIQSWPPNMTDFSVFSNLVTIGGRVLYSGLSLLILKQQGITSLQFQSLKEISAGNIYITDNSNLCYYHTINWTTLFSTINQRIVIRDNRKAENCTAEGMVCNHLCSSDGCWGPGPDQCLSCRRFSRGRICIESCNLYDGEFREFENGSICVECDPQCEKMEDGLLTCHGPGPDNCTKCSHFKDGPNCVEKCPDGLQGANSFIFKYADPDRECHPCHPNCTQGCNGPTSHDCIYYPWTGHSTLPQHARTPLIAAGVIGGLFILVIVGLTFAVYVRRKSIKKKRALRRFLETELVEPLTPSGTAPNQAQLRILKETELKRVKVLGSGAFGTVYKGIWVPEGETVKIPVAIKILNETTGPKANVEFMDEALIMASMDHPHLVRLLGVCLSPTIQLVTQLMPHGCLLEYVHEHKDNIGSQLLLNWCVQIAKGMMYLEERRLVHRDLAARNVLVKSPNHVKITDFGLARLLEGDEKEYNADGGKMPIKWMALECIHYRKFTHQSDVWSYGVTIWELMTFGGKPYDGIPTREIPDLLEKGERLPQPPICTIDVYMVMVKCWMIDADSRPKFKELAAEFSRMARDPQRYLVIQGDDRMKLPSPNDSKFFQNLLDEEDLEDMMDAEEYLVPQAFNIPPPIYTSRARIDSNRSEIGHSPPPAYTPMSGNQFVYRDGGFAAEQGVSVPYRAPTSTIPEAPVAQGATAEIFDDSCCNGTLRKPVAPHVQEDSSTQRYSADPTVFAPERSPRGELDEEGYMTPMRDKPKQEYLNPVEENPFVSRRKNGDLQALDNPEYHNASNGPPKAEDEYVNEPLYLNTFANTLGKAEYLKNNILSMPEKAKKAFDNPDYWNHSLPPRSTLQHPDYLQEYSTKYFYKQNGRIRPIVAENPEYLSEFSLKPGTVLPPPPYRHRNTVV
Chain of CAMK2D (Q13557 whole entry, species assumed): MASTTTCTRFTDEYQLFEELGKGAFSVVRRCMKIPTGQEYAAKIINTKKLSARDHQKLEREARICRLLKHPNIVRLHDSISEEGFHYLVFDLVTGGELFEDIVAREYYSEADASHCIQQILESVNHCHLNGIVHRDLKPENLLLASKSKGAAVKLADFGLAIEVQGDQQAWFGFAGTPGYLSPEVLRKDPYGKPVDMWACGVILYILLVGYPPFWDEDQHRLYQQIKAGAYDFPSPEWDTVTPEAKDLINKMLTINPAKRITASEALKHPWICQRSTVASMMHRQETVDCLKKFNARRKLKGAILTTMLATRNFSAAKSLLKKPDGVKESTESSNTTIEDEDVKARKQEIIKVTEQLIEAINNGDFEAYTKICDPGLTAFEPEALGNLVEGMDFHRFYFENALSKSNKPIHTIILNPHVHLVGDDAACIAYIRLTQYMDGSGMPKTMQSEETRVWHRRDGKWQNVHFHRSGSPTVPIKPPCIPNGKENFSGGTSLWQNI
Chain of CHEK1 (O14757 whole entry, species assumed): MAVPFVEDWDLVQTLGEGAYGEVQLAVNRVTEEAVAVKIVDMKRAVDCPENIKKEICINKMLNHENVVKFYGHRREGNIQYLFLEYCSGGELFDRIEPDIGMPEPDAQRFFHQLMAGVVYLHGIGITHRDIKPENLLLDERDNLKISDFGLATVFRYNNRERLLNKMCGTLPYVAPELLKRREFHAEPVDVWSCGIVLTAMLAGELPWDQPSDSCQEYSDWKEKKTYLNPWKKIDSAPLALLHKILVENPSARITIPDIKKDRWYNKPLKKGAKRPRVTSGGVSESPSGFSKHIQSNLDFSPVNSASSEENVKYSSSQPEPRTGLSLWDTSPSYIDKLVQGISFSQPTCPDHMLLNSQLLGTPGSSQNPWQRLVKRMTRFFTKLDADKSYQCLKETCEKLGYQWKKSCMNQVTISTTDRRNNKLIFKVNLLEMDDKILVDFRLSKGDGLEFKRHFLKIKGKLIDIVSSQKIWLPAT
Chain of BRK (PTK6) (Q13882 whole entry, species assumed): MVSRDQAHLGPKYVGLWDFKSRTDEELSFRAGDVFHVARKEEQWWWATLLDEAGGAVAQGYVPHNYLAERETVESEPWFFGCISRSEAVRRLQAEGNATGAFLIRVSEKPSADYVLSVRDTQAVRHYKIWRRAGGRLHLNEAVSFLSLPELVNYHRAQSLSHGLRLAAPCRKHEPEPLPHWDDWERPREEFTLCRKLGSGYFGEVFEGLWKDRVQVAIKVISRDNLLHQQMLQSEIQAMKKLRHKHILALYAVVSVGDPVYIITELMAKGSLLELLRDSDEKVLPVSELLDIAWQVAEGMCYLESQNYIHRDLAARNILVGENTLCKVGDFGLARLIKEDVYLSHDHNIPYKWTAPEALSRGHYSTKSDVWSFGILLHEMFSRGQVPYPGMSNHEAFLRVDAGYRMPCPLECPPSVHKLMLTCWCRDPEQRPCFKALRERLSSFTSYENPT

COc1cc(N2CCC(N3CCN(CC4CCN(c5ccc6c(c5)CN(C5CCC(=O)NC5=O)C6=O)CC4)CC3)CC2)ccc1Nc1ncc(Cl)c(Nc2ccccc2P(C)(C)=O)n1 (stereo not drawn) [9o, 3-(5-(4-((4-(1-(4-((5-Chloro-4-((2-(dimethylphosphoryl)phenyl)amino)pyrimidin-2-yl)amino)-3-methoxyphenyl)piperidin-4-yl)piperazin-1-yl)methyl)piperidin-1-yl)-1-oxoisoindolin-2-yl)piperidine-2,6-dione]
IC50 (CAMK2D): 39 nM | Cmax at 24 h ([1]; Sprague-Dawley [Crl: CD (SD)], plasma, 5 mg/kg po): 94 ng/mL | bioavailability ([1]; Sprague-Dawley [Crl: CD (SD)], plasma, 5 mg/kg po vs 0.5 mg/kg iv): 7.3% | AUC (po) ([1]; 5 mg/kg po): 1267 ng·h/mL | T1/2 ([1]; 5 mg/kg po): 7.32 h | Tmax ([1]; 5 mg/kg po): 2 h | IC50 (BRK (PTK6)): 76 nM | IC50 (CHEK1): 40 nM | IC50 (Ba/F3 ROS1 D2033N): 9.6 nM | IC50 (Ba/F3 ROS1 L2026M): 2.5 nM | IC50 (Ba/F3 ROS1 G2032R-F2075V): 5.6 nM | IC50 [2]: 0.4 ± 0.3 nM | IC50 [3]: 2.9 ± 0.5 nM | IC50 [4]: 58.4 ± 11.4 nM | IC50 (ALK): 0.9 nM | IC50 (FLT3): < 10 nM and 3.5 nM | AUC (iv) [5]: 1736 ng·h/mL | logP (Log P measurement): 2.54 | IC50 (ERBB4/HER4): 27 nM | IC50 (ROS1 (G2101A)): 10.9 nM | IC50 (ERBB2): 42 nM
